According to US12404261B2, “Compounds and compositions for treating conditions associated with cGAS” (Novartis AG, priority 2020, dated 2025):

biological target: human truncated cGAS enzyme (147-522 human cGAS) (Homo sapiens (Human), UniProt Q8N884); test: Quantification of cGAS protein inhibition (cGAMP formation measured by LC-MS/MS); assay type: biochemical; conditions: reported for the potential mixture in solution of co-existing tautomers and/or racemates
Summary of the method: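 Human cGAS 147-522 (30 nM) in Tris pH 7.5, NaCl, MgCl2, ZnCl2, Tween 20, started with 5 μM ISD 45 bp dsDNA, 0.5 mM GTP and 0.5 mM ATP. Incubated 1 h at room temperature, then quenched with acetonitrile/TFA. cGAMP quantified by LC-MS/MS against a labelled cGAMP internal standard; IC50 from ratio versus compound concentration.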

Chain of human truncated cGAS enzyme (147-522 human cGAS) (Q8N884 147-522): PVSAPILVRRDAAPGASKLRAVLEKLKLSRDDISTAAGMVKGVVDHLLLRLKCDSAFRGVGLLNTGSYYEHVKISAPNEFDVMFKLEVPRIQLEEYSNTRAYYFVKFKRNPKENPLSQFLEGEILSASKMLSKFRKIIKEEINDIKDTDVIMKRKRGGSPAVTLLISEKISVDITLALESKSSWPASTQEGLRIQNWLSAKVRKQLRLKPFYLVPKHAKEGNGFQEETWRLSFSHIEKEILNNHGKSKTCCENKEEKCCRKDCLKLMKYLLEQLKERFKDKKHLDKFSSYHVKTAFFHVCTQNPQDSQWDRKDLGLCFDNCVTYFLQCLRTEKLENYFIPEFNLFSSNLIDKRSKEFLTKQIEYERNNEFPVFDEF

IC50 [µM] | SMILES
0.064 | COc1cc2c(-n3ccnc3)c(-c3nnc(C(OC)C(F)F)[nH]3)n(C)c2c(F)c1Cl (centres unmarked) [Example 99, 6-chloro-2-(5-(2,2-difluoro-1-methoxyethyl)-4H-1,2,4-triazol-3-yl)-7-fluoro-3-(1H-imidazol-1-yl)-5-methoxy-1-methyl-1H-indole]
0.171 | COc1cc2c(-n3ccnc3)c(-c3nnc(C(=O)N(C)C)[nH]3)n(C)c2c(C#N)c1Cl [Example 103, 5-(6-chloro-7-cyano-3-(1H-imidazol-1-yl)-5-methoxy-1-methyl-1H-indol-2-yl)-N,N-dimethyl-4H-1,2,4-triazole-3-carboxamide]
0.564 | FC(F)(F)c1nnc(-c2[nH]c3cc(Cl)c(Cl)cc3c2-n2ccnc2)[nH]1 [Example 105, 5,6-dichloro-3-(1H-imidazol-1-yl)-2-(5-(trifluoromethyl)-4H-1,2,4-triazol-3-yl)-1H-indole]
0.454 | COCCN(C)C(C)c1nnc(-c2c(-n3ccnc3)c3cc(OC)c(Cl)c(F)c3n2C)[nH]1 (centres unmarked) [Example 128, 1-(5-(6-chloro-7-fluoro-3-(1H-imidazol-1-yl)-5-methoxy-1-methyl-1H-indol-2-yl)-4H-1,2,4-triazol-3-yl)-N-(2-methoxyethyl)-N-methylethan-1-amine]
0.282 | Cn1c(-c2nnc(C(F)(F)F)[nH]2)c(-n2ccnc2)c2cc(Cl)c(Cl)cc21 [Example 108, 5,6-dichloro-3-(1H-imidazol-1-yl)-1-methyl-2-(5-(trifluoromethyl)-4H-1,2,4-triazol-3-yl)-1H-indole]
0.291 | COc1cc2c(-n3ccnc3)c(-c3nnc(CCO)[nH]3)n(C)c2c(C#N)c1Cl [Example 118, 6-chloro-2-(5-(2-hydroxyethyl)-4H-1,2,4-triazol-3-yl)-3-(1H-imidazol-1-yl)-5-methoxy-1-methyl-1H-indole-7-carbonitrile]
0.169 | Cn1c(-c2nnc(CCO)[nH]2)c(-n2ccnc2)c2cc(O)c(Cl)c(C#N)c21 [Example 117, 6-chloro-5-hydroxy-2-(5-(2-hydroxyethyl)-4H-1,2,4-triazol-3-yl)-3-(1H-imidazol-1-yl)-1-methyl-1H-indole-7-carbonitrile]
0.721 | CCOc1cc2c(-n3ccnc3)c(-c3nnc(C(C)=O)[nH]3)n(C)c2c(F)c1Cl [Example 101, 1-(5-(6-chloro-5-ethoxy-7-fluoro-3-(1H-imidazol-1-yl)-1-methyl-1H-indol-2-yl)-4H-1,2,4-triazol-3-yl)ethan-1-one]
0.99 | COc1cc2c(-n3ccnc3)c(-c3nnc(CCO)[nH]3)n(C)c2cc1Cl [Example 119, 2-(5-(6-chloro-3-(1H-imidazol-1-yl)-5-methoxy-1-methyl-1H-indol-2-yl)-4H-1,2,4-triazol-3-yl)ethan-1-ol]
0.095 | FC(F)(F)c1nnc(-c2[nH]c3c(Cl)c(Cl)ccc3c2-n2ccnc2)[nH]1 [Example 106, 6,7-dichloro-3-(1H-imidazol-1-yl)-2-(5-(trifluoromethyl)-4H-1,2,4-triazol-3-yl)-1H-indole]
0.268 | COc1cc2c(-n3ccnc3)c(-c3nnc(C(C)N4CC5(COC5)C4)[nH]3)n(C)c2c(F)c1Cl (centres unmarked) [Example 130, 6-(1-(5-(6-chloro-7-fluoro-3-(1H-imidazol-1-yl)-5-methoxy-1-methyl-1H-indol-2-yl)-4H-1,2,4-triazol-3-yl)ethyl)-2-oxa-6-azaspiro[3.3]heptane]

same assay, conditions: reported for the potential mixture of co-existing tautomers and/or racemates

IC50 [µM] | SMILES
4.21 | Oc1cc(-c2c(-c3nnc(C(F)(F)F)[nH]3)[nH]c3c(Cl)c(Cl)ccc23)n[nH]1 [Example 76, 3-(6,7-dichloro-2-(5-(trifluoromethyl)-4H-1,2,4-triazol-3-yl)-1H-indol-3-yl)-1H-pyrazol-5-ol]
0.264 | COc1cc2c(-n3ccnc3)c(-c3nnc(F)[nH]3)n(C)c2c(F)c1Cl [Example 86, 6-chloro-7-fluoro-2-(5-fluoro-4H-1,2,4-triazol-3-yl)-3-(1H-imidazol-1-yl)-5-methoxy-1-methyl-1H-indole]
0.063 | COc1cc2c(-n3ccnc3)c(-c3nnc(C(=O)N4CCOCC4)[nH]3)n(C)c2c(F)c1Cl [Example 42, (5-(6-chloro-7-fluoro-3-(1H-imidazol-1-yl)-5-methoxy-1-methyl-1H-indol-2-yl)-4H-1,2,4-triazol-3-yl)(morpholino)methanone]
0.081 | COc1cc2c(-n3ccnc3)c(-c3nnc(N4CC[C@H](O)C4)[nH]3)n(C)c2c(F)c1Cl [Example 92, (S)-1-(5-(6-chloro-7-fluoro-3-(1H-imidazol-1-yl)-5-methoxy-1-methyl-1H-indol-2-yl)-4H-1,2,4-triazol-3-yl)pyrrolidin-3-ol]
0.03 | CCOC(=O)c1nnc(-c2[nH]c3c(Cl)c(Cl)ccc3c2-c2cn[nH]c2)[nH]1 [Example 21, ethyl 5-(6,7-dichloro-3-(1H-pyrazol-4-yl)-1H-indol-2-yl)-4H-1,2,4-triazole-3-carboxylate]
0.134 | Cn1c(-c2nnc(C(F)(F)F)[nH]2)c(-c2cn[nH]c2)c2cc(C#N)c(Cl)c(F)c21 [Example 8, 6-chloro-7-fluoro-1-methyl-3-(1H-pyrazol-4-yl)-2-(5-(trifluoromethyl)-4H-1,2,4-triazol-3-yl)-1H-indole-5-carbonitrile]
0.039 | COc1cc2c(-c3cn[nH]c3)c(-c3nnc(C(C)N(C)C)[nH]3)n(C)c2c(F)c1Cl (centres unmarked) [Example 80, 1-(5-(6-chloro-7-fluoro-5-methoxy-1-methyl-3-(1H-pyrazol-4-yl)-1H-indol-2-yl)-4H-1,2,4-triazol-3-yl)-N,N-dimethylethan-1-amine]
0.031 | COCC(F)(F)c1nnc(-c2[nH]c3c(F)c(Cl)c(OC)cc3c2-c2cn[nH]c2)[nH]1 [Example 65, 6-chloro-2-(5-(1,1-difluoro-2-methoxyethyl)-4H-1,2,4-triazol-3-yl)-7-fluoro-5-methoxy-3-(1H-pyrazol-4-yl)-1H-indole]
0.066 | COCC(O)c1nnc(-c2c(-n3ccnc3)c3cc(OC)c(Cl)c(C#N)c3n2C)[nH]1 (centres unmarked) [Example 53, 6-chloro-2-(5-(1-hydroxy-2-methoxyethyl)-4H-1,2,4-triazol-3-yl)-3-(1H-imidazol-1-yl)-5-methoxy-1-methyl-1H-indole-7-carbonitrile]
0.03 | COc1cc2c(-c3cn[nH]c3)c(-c3nnc(F)[nH]3)[nH]c2c(F)c1Cl [Example 3, 6-chloro-7-fluoro-2-(5-fluoro-4H-1,2,4-triazol-3-yl)-5-methoxy-3-(1H-pyrazol-4-yl)-1H-indole]
0.052 | COCC(O)c1nnc(-c2c(-c3cn[nH]c3)c3cc(OC)c(Cl)c(F)c3n2C)[nH]1 (centres unmarked) [Example 64, 1-(5-(6-chloro-7-fluoro-5-methoxy-1-methyl-3-(1H-pyrazol-4-yl)-1H-indol-2-yl)-4H-1,2,4-triazol-3-yl)-2-methoxyethan-1-ol]
0.116 | COc1cc2c(-c3cn[nH]c3)c(-c3nnc(C(F)(F)F)[nH]3)n(C)c2cc1Cl [Example 20, 6-chloro-5-methoxy-1-methyl-3-(1H-pyrazol-4-yl)-2-(5-(trifluoromethyl)-4H-1,2,4-triazol-3-yl)-1H-indole]
0.091 | COCC(c1nnc(-c2c(-c3cn[nH]c3)c3cc(OC)c(Cl)c(F)c3n2C)[nH]1)N(C)C (centres unmarked) [Example 81, 1-(5-(6-chloro-7-fluoro-5-methoxy-1-methyl-3-(1H-pyrazol-4-yl)-1H-indol-2-yl)-4H-1,2,4-triazol-3-yl)-2-methoxy-N,N-dimethylethan-1-amine]
0.06 | COc1cc2c(-n3ccnc3)c(-c3n[nH]c(C(CO)OC)n3)n(C)c2c(F)c1Cl (centres unmarked) [Example 93, 2-(3-(6-chloro-7-fluoro-3-(1H-imidazol-1-yl)-5-methoxy-1-methyl-1H-indol-2-yl)-1H-1,2,4-triazol-5-yl)-2-methoxyethan-1-ol]
0.138 | COc1cc2c(-n3ccnc3)c(-c3nnc(C(=O)N4CCN(C)CC4)[nH]3)n(C)c2c(F)c1Cl [Example 46, (5-(6-chloro-7-fluoro-3-(1H-imidazol-1-yl)-5-methoxy-1-methyl-1H-indol-2-yl)-4H-1,2,4-triazol-3-yl)(4-methylpiperazin-1-yl)methanone]
0.04 | COCC(F)(F)c1nnc(-c2c(-n3ccnc3)c3cc(OC)c(Cl)c(F)c3n2C)[nH]1 [Example 89, 6-chloro-2-(5-(1,1-difluoro-2-methoxyethyl)-4H-1,2,4-triazol-3-yl)-7-fluoro-3-(1H-imidazol-1-yl)-5-methoxy-1-methyl-1H-indole]
0.049 | COc1cc2c(-c3cn[nH]c3)c(-c3nnc(C(N)=O)[nH]3)[nH]c2cc1Cl [Example 31, 5-(6-chloro-5-methoxy-3-(1H-pyrazol-4-yl)-1H-indol-2-yl)-4H-1,2,4-triazole-3-carboxamide]
0.063 | COC[C@H](O)c1nnc(-c2c(-n3ccnc3)c3cc(OC)c(Cl)c(F)c3n2C)[nH]1 [Example 84, (R)-1-(5-(6-chloro-7-fluoro-3-(1H-imidazol-1-yl)-5-methoxy-1-methyl-1H-indol-2-yl)-4H-1,2,4-triazol-3-yl)-2-methoxyethan-1-ol]
0.091 | COc1cc2c(-n3ccnc3)c(-c3nnc(OC(C)C)[nH]3)n(C)c2c(F)c1Cl [Example 85, 6-chloro-7-fluoro-3-(1H-imidazol-1-yl)-2-(5-isopropoxy-4H-1,2,4-triazol-3-yl)-5-methoxy-1-methyl-1H-indole]
0.066 | COc1cc2c(-n3ccnc3)c(-c3nnc(C(F)(F)F)[nH]3)[nH]c2c(F)c1Cl [Example 48, 6-chloro-7-fluoro-3-(1H-imidazol-1-yl)-5-methoxy-2-(5-(trifluoromethyl)-4H-1,2,4-triazol-3-yl)-1H-indole]
0.063 | COCC(O)c1nnc(-c2c(-n3ccnc3)c3cc(OC)c(Cl)c(F)c3n2C)[nH]1 (centres unmarked) [Example 83a, 1-(5-(6-chloro-7-fluoro-3-(1H-imidazol-1-yl)-5-methoxy-1-methyl-1H-indol-2-yl)-4H-1,2,4-triazol-3-yl)-2-methoxyethan-1-ol]
